Data from patent US10221167B2, “Hydroxyalkylamine- and hydroxycycloalkylamine-substituted diamine-arylsulfonamide compounds with selective activity in voltage-gated sodium channels” (Merck Sharp & Dohme Corp., priority 2015, dated 2019).

Columns and labels:
[1] = target: T1, human Nav1.7 channels stably expressed in HEK 293 cells (Homo sapiens, UniProt Q15858); experiment: IonWorks Quattro automated patch-clamp, state-dependent inhibition of Nav1.7; type: cell-based; conditions: inactivated state block, double-pulse protocol, holding -100 mV, read-out: potency for the Nav 1.7 sodium ion channel (as measured by IonWorks)
T1 construct: expressed in transfected cells
T1 sequence (Q15858 whole entry): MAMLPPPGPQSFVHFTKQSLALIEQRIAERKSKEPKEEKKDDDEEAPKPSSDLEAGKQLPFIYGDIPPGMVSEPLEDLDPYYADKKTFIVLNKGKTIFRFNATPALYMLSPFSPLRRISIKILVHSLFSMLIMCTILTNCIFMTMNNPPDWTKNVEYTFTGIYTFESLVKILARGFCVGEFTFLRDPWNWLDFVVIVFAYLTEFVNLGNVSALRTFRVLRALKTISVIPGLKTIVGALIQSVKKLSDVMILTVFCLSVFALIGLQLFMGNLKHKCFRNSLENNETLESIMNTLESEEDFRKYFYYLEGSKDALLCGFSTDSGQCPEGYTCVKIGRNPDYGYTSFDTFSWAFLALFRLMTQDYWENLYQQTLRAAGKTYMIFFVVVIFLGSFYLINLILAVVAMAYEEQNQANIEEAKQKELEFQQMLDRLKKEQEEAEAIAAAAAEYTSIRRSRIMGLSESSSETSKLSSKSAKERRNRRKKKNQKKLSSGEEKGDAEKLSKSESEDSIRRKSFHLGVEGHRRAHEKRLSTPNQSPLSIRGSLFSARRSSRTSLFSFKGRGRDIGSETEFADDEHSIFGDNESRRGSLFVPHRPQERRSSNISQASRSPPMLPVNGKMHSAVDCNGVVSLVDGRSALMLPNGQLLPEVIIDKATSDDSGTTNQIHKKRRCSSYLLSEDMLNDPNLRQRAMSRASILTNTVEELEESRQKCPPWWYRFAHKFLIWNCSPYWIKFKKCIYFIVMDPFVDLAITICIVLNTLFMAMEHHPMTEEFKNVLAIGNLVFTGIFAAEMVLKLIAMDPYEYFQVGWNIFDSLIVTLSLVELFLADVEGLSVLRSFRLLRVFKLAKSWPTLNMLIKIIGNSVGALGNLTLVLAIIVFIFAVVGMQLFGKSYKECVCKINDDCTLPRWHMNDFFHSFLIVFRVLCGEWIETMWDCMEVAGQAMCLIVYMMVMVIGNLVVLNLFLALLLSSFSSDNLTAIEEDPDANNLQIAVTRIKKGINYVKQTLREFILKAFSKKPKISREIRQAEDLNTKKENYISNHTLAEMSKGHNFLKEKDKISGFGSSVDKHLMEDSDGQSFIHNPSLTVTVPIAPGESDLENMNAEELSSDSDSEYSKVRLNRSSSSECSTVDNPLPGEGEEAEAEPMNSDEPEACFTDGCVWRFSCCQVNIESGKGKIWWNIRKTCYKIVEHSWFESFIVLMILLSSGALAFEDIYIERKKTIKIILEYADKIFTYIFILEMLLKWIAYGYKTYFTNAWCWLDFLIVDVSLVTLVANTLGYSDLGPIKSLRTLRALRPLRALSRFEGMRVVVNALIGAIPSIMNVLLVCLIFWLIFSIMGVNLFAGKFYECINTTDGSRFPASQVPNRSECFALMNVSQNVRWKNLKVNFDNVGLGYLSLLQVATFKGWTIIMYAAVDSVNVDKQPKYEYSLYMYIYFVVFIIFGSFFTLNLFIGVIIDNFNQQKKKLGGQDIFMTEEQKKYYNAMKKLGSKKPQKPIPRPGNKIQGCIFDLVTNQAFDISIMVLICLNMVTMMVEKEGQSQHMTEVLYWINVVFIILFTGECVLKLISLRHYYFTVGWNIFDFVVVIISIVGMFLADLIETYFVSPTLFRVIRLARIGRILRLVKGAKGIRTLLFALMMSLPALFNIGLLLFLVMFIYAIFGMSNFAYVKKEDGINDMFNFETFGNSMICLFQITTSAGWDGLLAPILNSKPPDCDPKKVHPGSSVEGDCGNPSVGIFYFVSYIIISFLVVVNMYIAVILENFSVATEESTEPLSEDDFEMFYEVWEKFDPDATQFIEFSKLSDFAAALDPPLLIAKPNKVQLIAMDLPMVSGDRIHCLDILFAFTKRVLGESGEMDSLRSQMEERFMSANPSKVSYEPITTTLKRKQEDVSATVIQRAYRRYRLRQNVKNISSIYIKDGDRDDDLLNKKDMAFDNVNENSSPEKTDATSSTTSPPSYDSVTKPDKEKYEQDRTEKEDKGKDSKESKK
Procedure: (§1) Compounds were tested on human Nav1.7 and Nav1.5 channels stably expressed in HEK 293 cells. […] Cells were sealed on a planar substrate using the Population Patch Plate (PPC) technology. Electrical access was obtained using both nystatin and amphotericin. A double-pulse protocol was used for the determination of IC50 values for inactivated state block. Nav1.7 and Nav1.5 expressing cells were voltage clamped at −100 mV and −110 mV, respectively. A depolarizing prepulse to −10 mV (Nav1.7) or −30 mV (Nav1.5) for 1000 ms followed by a 10 ms repolarization to −100 mV (Nav1.7) or −110 mV (Nav1.5) was given to generate fractional channel inactivation of ˜50%, followed by a 10 ms test pulse to −10 mV (Nav1.7) or −30 mV (Nav1.5) to measure peak current in control conditions and after compound addition. The following recording solutions were used (mM). External: 150 NaCl, 2 CaCl2, 5 KCl, 1 Mg Cl2, 10 HEPES, 12 Dextrose; internal: 120 CsF, 30 CsCl, 10 EGTA, 5 HEPES, 5 NaF, 2 MgCl2.
(§2) For all electrophysiology experiments, offline analysis was used to determine percent inhibition as a function of drug concentration. IC50 values were determined by fitting to the Hill equation.
(§3) The various compounds in Examples 1 through 4 and Tables 1 through 3 exemplified above were assayed for activity and selectivity using the foregoing IonWorks® technique. The results are reported in the following paragraph in a format expressing the identification of the compound with reference Example and compound (e.g. Ex 1-1 is Example 1, compound 1) followed by the observed potency in nM and the ratio of Nav1.7 potency:Nav 1.5 potency as described here. […]

[2] = target: T2, human Nav1.5 channels stably expressed in HEK 293 cells (Homo sapiens, UniProt Q14524); experiment: IonWorks Quattro automated patch-clamp, Nav1.5 (selectivity ratio versus Nav1.7); type: cell-based; conditions: selectivity for Nav1.7 over Nav1.5, inactivated state block
T2 construct: expressed in transfected cells
T2 sequence (Q14524 whole entry): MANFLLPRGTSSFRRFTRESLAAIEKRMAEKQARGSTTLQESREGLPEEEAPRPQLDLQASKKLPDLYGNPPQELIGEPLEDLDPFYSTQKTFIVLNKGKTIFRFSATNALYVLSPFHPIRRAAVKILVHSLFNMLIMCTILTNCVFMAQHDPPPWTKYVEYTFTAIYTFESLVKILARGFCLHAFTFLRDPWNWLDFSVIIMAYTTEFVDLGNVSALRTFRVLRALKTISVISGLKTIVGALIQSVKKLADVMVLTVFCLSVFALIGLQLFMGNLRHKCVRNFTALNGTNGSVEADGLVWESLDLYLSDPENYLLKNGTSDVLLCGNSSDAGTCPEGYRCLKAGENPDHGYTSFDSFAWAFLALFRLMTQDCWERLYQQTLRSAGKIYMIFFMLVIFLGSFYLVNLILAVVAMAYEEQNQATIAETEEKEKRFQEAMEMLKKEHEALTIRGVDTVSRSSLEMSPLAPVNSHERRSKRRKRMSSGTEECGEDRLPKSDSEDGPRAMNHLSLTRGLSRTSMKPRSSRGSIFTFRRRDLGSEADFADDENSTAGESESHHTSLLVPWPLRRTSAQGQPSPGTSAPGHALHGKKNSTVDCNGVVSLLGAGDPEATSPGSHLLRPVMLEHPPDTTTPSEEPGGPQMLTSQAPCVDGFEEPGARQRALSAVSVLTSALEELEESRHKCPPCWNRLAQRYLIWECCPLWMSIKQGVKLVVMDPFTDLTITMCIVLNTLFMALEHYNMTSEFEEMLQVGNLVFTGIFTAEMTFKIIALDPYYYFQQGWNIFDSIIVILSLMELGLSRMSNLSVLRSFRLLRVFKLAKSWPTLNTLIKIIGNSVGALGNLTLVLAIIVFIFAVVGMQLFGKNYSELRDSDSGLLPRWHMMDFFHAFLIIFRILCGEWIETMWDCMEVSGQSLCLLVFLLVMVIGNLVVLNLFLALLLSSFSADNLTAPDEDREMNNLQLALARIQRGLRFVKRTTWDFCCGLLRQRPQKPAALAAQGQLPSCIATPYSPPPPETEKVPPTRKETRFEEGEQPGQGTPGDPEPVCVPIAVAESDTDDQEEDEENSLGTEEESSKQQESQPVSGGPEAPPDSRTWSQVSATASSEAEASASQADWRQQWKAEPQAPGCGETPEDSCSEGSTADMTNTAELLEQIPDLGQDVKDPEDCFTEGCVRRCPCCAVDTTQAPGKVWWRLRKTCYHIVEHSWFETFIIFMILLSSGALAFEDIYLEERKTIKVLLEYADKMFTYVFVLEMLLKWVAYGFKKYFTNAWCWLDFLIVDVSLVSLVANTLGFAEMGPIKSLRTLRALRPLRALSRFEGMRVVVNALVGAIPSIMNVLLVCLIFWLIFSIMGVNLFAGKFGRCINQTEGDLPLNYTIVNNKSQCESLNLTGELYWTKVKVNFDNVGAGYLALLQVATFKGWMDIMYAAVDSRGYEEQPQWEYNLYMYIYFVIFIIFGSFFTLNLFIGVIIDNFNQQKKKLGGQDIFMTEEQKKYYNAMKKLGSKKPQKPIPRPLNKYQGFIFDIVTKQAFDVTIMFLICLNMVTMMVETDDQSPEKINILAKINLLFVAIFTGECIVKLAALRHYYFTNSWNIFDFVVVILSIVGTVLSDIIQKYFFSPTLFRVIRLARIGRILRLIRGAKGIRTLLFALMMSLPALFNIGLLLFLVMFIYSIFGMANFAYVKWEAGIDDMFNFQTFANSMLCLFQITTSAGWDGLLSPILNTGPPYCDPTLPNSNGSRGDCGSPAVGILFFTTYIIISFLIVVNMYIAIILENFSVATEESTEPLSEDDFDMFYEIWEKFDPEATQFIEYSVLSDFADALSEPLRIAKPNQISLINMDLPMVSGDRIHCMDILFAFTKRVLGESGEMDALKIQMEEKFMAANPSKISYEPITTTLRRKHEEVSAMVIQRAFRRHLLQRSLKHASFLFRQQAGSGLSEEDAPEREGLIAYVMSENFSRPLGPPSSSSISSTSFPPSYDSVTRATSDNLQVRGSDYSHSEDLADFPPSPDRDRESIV
Procedure: as §1, §2, §3

| IC50 [1] [nM] | SMILES | ratio of Nav1.7 potency:Nav 1.5 potency [2] |
| --- | --- | --- |
| 15 | NCC(O)CNCCCCNc1cc(F)c(S(=O)(=O)Nc2ncc(F)s2)cc1Cl (single isomer, unassigned) [EX 2-17, 4-[(4-{[(2R or 2S)-3-amino-2-hydroxypropyl]amino}butyl)amino]-5-chloro-2-fluoro-N-(5-fluoro-1,3-thiazol-2-yl)benzenesulfonamide] |  |
| 16 | NCC(O)CNCCCCNc1cc(F)c(S(=O)(=O)Nc2ncc(F)s2)cc1Cl (single isomer, unassigned) [EX 2-18, 4-[(4-{[(2S or 2R)-3-amino-2-hydroxypropyl]amino}butyl)amino]-5-chloro-2-fluoro-N-(5-fluoro-1,3-thiazol-2-yl)benzenesulfonamide] | ≥ 1000 |
| 18 | NCC(O)CNCCCCNc1cc(F)c(S(=O)(=O)Nc2nccs2)cc1Cl (single isomer, unassigned) [EX 2-29, 4-[(4-{[(2R or 2S)-3-amino-2-hydroxypropyl]amino}butyl)amino]-5-chloro-2-fluoro-N-1,3-thiazol-2-ylbenzenesulfonamide] |  |
| 17 | NCC(O)CNCCCCNc1cc(F)c(S(=O)(=O)Nc2nccs2)cc1Cl (single isomer, unassigned) [EX 2-30, 4-[(4-{[(2S or 2R)-3-amino-2-hydroxypropyl]amino}butyl)amino]-5-chloro-2-fluoro-N-1,3-thiazol-2-ylbenzenesulfonamide] |  |
| 50 | NC[C@H](O)CNCCCCNc1cc(F)c(S(=O)(=O)Nc2ncns2)cc1Cl [EX 1-1, 4-[(4-{[(2S)-3-amino-2-hydroxypropyl]amino}butyl)amino]-5-chloro-2-fluoro-N-1,2,4-thiadiazol-5-ylbenzenesulfonamide] | ≥ 660 |
| 20 | NCC1(O)CN(CCCCNc2cc(F)c(S(=O)(=O)Nc3ncc(F)s3)cc2Cl)C1 [EX 1-2, 4-({4-[3-(aminomethyl)-3-hydroxyazetidin-1-yl]butyl}amino)-5-chloro-2-fluoro-N-(5-fluoro-1,3-thiazol-2-yl)benzenesulfonamide] |  |
| 39 | Cc1cc(S(=O)(=O)Nc2ncc(F)s2)c(F)cc1NCCCCNCC1(O)CNC1 [EX 1-4, 2-fluoro-N-(5-fluoro-1,3-thiazol-2-yl)-4-[(4-{[(3-hydroxyazetidin-3-yl)methyl]amino}butyl)amino]-5-methylbenzenesulfonamide] | ≥ 846 |
| 19 | O=S(=O)(Nc1ncns1)c1cc(Br)c(NCCCCNCC2(O)CNC2)cc1F [EX 1-5, 5-bromo-2-fluoro-4-[(4-{[(3-hydroxyazetidin-3-yl)methyl]amino}butyl)amino]-N-1,2,4-thiadiazol-5-ylbenzenesulfonamide] |  |
| 15 | NC[C@@H](O)CNCCCCNc1cc(F)c(S(=O)(=O)Nc2ncns2)cc1Cl [EX 1-6, 4-[(4-{[(2R)-3-amino-2-hydroxypropyl]-amino}butyl)amino]-5-chloro-2-fluoro-N-1,2,4-thiadiazol-5-yl-benzenesulfonamide] |  |
| 7 | NC[C@H](O)CNCCCCNc1cc(F)c(S(=O)(=O)Nc2ncns2)cc1Br [EX 1-7, 4-[(4-{[(2S)-3-amino-2-hydroxypropyl]-amino}butyl)amino]-5-bromo-2-fluoro-N-1,2,4-thiadiazol-5-yl-benzenesulfonamide] | ≥ 4714 |
| 17 | NC[C@@H](O)CNCCCCNc1cc(F)c(S(=O)(=O)Nc2ncns2)cc1Br [EX 1-8, 4-[(4-{[(2R)-3-amino-2-hydroxypropyl]-amino}-butyl)amino]-5-bromo-2-fluoro-N-1,2,4-thiadiazol-5-yl-benzenesulfonamide] |  |
| 55 | Cc1csc(NS(=O)(=O)c2cc(Cl)c(NCCCCNCC3(O)CNC3)cc2F)n1 [EX 1-9, 5-chloro-2-fluoro-4-[(4-{[(3-hydroxyazetidin-3-yl)methyl]amino}butyl)amino]-N-(4-methyl-1,3-thiazol-2-yl)-benzenesulfonamide] | ≥ 600 |
| 6.6 | NCC1(O)CN(CCCCNc2cc(F)c(S(=O)(=O)Nc3ncns3)cc2Br)C1 [EX 1-11, 4-((4-(3-(aminomethyl)-3-hydroxyazetidin-1-yl)butyl)amino)-5-bromo-2-fluoro-N-(1,2,4-thiadiazol-5-yl)benzenesulfonamide] | ≥ 5000 |
| 16 | O=S(=O)(Nc1ncns1)c1cc(Cl)c(NCCCCNCC2(O)CNC2)cc1F [EX 2-1, 5-chloro-2-fluoro-4-[(4-{[(3-hydroxyazetidin-3-yl)methyl]amino}butyl)amino]-N-1,2,4-thiadiazol-5-ylbenzenesulfonamide] | ≥ 2063 |
| 23 | O=S(=O)(Nc1ncns1)c1cc(Cl)c(NCCCCN[C@@H]2CNC[C@H]2O)cc1F [EX 2-2, 5-chloro-2-fluoro-4-[(4-{[(3R,4R)-4-hydroxypyrrolidin-3-yl]amino}butyl)amino]-N-1,2,4-thiadiazol-5-ylbenzenesulfonamide] |  |
| 40 | O=S(=O)(Nc1ncc(F)s1)c1cc(Cl)c(NCCCCN[C@@H]2CNC[C@H]2O)cc1F [EX 2-20, 5-chloro-2-fluoro-N-(5-fluoro-1,3-thiazol-2-yl)-4-[(4-{[(3R,4R)-4-hydroxypyrrolidin-3-yl]amino}butyl)amino] benzenesulfonamide] |  |
| 23 | O=S(=O)(Nc1ncc(F)s1)c1cc(Cl)c(NCCCCNC[C@H]2C[C@@H](O)CN2)cc1F [EX 2-23, 5-chloro-2-fluoro-N-(5-fluoro-1,3-thiazol-2-yl)-4-{[4-({[(2R,4R)-4-hydroxypyrrolidin-2-yl]methyl}amino)butyl]amino} benzenesulfonamide] |  |
| 30 | O=S(=O)(Nc1ncc(F)s1)c1cc(Cl)c(NCCCCNC[C@H]2C[C@H](O)CN2)cc1F [EX 2-24, 5-chloro-2-fluoro-N-(5-fluoro-1,3-thiazol-2-yl)-4-{[4-({[(2R,4S)-4-hydroxypyrrolidin-2-yl]methyl}amino)butyl]amino} benzenesulfonamide] |  |
| 15 | O=S(=O)(Nc1ncc(F)s1)c1cc(Br)c(NCCCCNCC2(O)CNC2)cc1F [EX 2-25, 5-bromo-2-fluoro-N-(5-fluoro-1,3-thiazol-2-yl)-4-[(4-{[(3-hydroxyazetidin-3-yl)methyl]amino}butyl)amino] benzenesulfonamide] |  |
| 18 | O=S(=O)(Nc1nccs1)c1cc(Cl)c(NCCCCNCC2(O)CNC2)cc1F [EX 2-28, 5-chloro-2-fluoro-4-[(4-{[(3-hydroxyazetidin-3-yl)methyl]amino}butyl)amino]-N-1,3-thiazol-2-ylbenzenesulfonamide] |  |
| 30 | O=S(=O)(Nc1nccs1)c1cc(Cl)c(NCCCCN[C@@H]2CNC[C@H]2O)cc1F [EX 2-31, 5-chloro-2-fluoro-4-[(4-{[(3R,4R)-4-hydroxypyrrolidin-3-yl]amino}butyl)amino]-N-1,3-thiazol-2-ylbenzenesulfonamide] |  |
| 19 | NCC[C@@H](CO)NCCCCNc1cc(F)c(S(=O)(=O)Nc2nccs2)cc1Cl [EX 2-32, 4-[(4-{[(1S)-3-amino-1-(hydroxymethyl)propyl]amino}butyl)amino]-5-chloro-2-fluoro-N-1,3-thiazol-2-ylbenzenesulfonamide] |  |
| 20 | NCC[C@@H](CO)NCCCCNc1cc(F)c(S(=O)(=O)Nc2ncc(F)s2)cc1Cl [EX 2-33, 4-[(4-{[(1S)-3-amino-1-(hydroxymethyl)propyl]amino}butyl)amino]-5-chloro-2-fluoro-N-(5-fluoro-1,3-thiazol-2-yl)benzenesulfonamide] |  |
| 18 | NCC[C@@H](CO)NCCCCNc1cc(F)c(S(=O)(=O)Nc2ncns2)cc1Cl [EX 2-34, 4-[(4-{[(1S)-3-amino-1-(hydroxymethyl)propyl]amino}butyl)amino]-5-chloro-2-fluoro-N-1,2,4-thiadiazol-5-ylbenzenesulfonamide] |  |
| 15 | NC[C@@H](CO)NCCCCNc1cc(F)c(S(=O)(=O)Nc2nccs2)cc1Cl [EX 2-35, 4-[(4-{[(1S)-2-amino-1-(hydroxymethyl)ethyl]amino}butyl)amino]-5-chloro-2-fluoro-N-1,3-thiazol-2-ylbenzenesulfonamide] |  |
| 40 | O=S(=O)(Nc1nccs1)c1cc(Cl)c(NCCCCN[C@H]2CNC[C@@H]2O)cc1F [EX 2-38] |  |
| 50 | NC[C@H](CO)NCCCCNc1cc(F)c(S(=O)(=O)Nc2ncc(F)s2)cc1Cl [EX 2-40, 4-[(4-{[(1R)-2-amino-1-(hydroxymethyl)ethyl]amino}butyl)amino]-5-chloro-2-fluoro-N-(5-fluoro-1,3-thiazol-2-yl)benzenesulfonamide] |  |
| 15 | O=S(=O)(Nc1ncns1)c1cc(Br)c(NCCCCN[C@H]2CNC[C@@H]2O)cc1F [EX 2-43, 5-bromo-2-fluoro-4-((4-(((3S,4S)-4-hydroxypyrrolidin-3-yl)amino)butyl)amino)-N-(1,2,4-thiadiazol-5-yl)benzenesulfonamide] |  |
